The values below come from patent publication EP4714953A1, “MELANOCORTIN 2-TYPE RECEPTOR ANTAGONIST” (Scohia Pharma, Inc., priority 2023, dated 2024).

Counter-ions that a name gives are not always drawn.

In one assay the target is T1, human MC2R (Homo sapiens, UniProt Q01718).
T1 construct: host or cells: GeneBLAzer MC2R-CRE-bla CHO-K1 cells
T1 sequence (Q01718 whole entry): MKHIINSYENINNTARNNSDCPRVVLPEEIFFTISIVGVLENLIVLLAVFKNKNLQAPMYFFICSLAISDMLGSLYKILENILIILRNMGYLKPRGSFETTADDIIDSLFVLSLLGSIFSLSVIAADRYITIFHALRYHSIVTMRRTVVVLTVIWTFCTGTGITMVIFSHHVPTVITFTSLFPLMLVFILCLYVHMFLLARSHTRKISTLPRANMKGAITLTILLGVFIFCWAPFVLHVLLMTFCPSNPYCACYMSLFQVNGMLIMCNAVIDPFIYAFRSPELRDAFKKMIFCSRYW
T1 sequence (Q8TCY5 whole entry partner): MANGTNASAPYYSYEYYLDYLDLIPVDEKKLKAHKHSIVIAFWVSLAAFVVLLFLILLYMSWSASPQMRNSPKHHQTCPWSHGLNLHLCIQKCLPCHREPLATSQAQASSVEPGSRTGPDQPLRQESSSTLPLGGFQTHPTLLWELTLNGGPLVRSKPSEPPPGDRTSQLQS
The assay is described as follows: Measurement of human MC2R inhibitory activity using intracellular cAMP concentration as an indicator. Format: cell-based. The settings on record: test compound at 1 µM; GeneBLAzer MC2R-CRE-bla CHO-K1 cells; ACTH (Human 1-24) final concentration 3 pM; intracellular cAMP by HTRF. The procedure:
Experimental Example 1: Measurement of human MC2R inhibitory activity using intracellular cAMP concentration as an indicator
GeneBLAzer MC2R-CRE-bla CHO-K1 cells (Thermo Fisher Scientific) that had been cryopreserved in advance were thawed and suspended in a medium [Dulbecco's Modified Eagle Medium (Thermo Fisher Scientific) containing fetal bovine serum (10% (v/v), HyClone Laboratories), Non-Essential Amino Acids Solution (1/100 (w/w), Thermo Fisher Scientific), HEPES (25 mM, Thermo Fisher Scientific), Penicillin/Streptomycin (1/100 (w/w), Fujifilm Wako)]. After centrifuging the cell suspension, the supernatant was removed, the cells were suspended in D-PBS(-) (Fujifilm Wako), and the supernatant was removed again after centrifugation. The cells were resuspended in an assay buffer [Hank's Balanced Salt Solution (Thermo Fisher Scientific) containing HEPES pH 7.5 (10 mM, Thermo Fisher Scientific), fatty acid-free bovine serum albumin (0.01% (w/v), Sigma), IBMX (500 µM, Fujifilm Wako)] and added to a 384-well white plate (Greiner) at 1,500 cells/well. Then, the test compound prepared using the assay buffer was added, and after standing for 20 min, an assay buffer containing ACTH (Human 1-24) (Peptide Institute) was added (ACTH final concentration, 3 pM). After standing at room temperature for 30 min, the intracellular cAMP level was measured using cAMP Gs HiRange kit HTRF (PerkinElmer). The inhibition rate (%) of the compound against MC2R was calculated using the following formula. Inhibition rate (%) = […] [formula] • A: cAMP concentration calculated from wells containing 3 pM ACTH (1-24) • B: cAMP concentration calculated from wells without addition of 3 pM ACTH (1-24) • C: cAMP concentration calculated from wells containing 3 pM ACTH (1-24) and test compound at concentration determined in advance
Background: In TR-FRET formats the signal depends on donor and acceptor labels being close together.
On to `CCOc1ncccc1-c1ccc(N2CCN3C(=O)N(c4ccc(Cl)cc4C(F)(F)F)C[C@@H]3C2)c(C(=O)NC2CCNC2)n1` (stereo partly drawn) [Example 24, 3-[(8aS)-2-[4-chloro-2-(trifluoromethyl)phenyl]-3-oxo-5,6,8,8a-tetrahydro-1H-imidazo[1,5-a]pyrazin-7-yl]-6-(2-ethoxypyridin-3-yl)-N-pyrrolidin-3-ylpyridine-2-carboxamide 2hydrochloride], for which the “MC2R inhibition rate (% of inhibition)” value was determined as 100%.

Turning to `CCOc1ncccc1-c1ccc(N2CCN3C(=O)N(c4ccc(Cl)cc4C(F)(F)F)C[C@@H]3C2)c(C(=O)NCCC2CCNCC2)n1` [Example 25, 3-[(8aS)-2-[4-chloro-2-(trifluoromethyl)phenyl]-3-oxo-5,6,8,8a-tetrahydro-1H-imidazo[1,5-a]pyrazin-7-yl]-6-(2-ethoxypyridin-3-yl)-N-(2-piperidin-4-ylethyl)pyridine-2-carboxamide 2 hydrochloride], the “MC2R inhibition rate (% of inhibition)” value amounted to 99%.

Still in this assay, the particulars now being: test compound at 1 µM; GeneBLAzer MC2R-CRE-bla CHO-K1 cells; ACTH (Human 1-24) final concentration 3 pM; intracellular cAMP by HTRF; read-out: MC2R inhibition rate (% of inhibition).
On to `CCOc1ncccc1-c1ccc(N2CCN3C(=O)N(c4ccc(Cl)cc4C(F)(F)F)C[C@@H]3C2)c(C(=O)NCCC2CCN(C(=O)OC(C)(C)C)CC2)n1` [Example 21, tert-butyl 4-[2-[[3-[(8aS)-2-[4-chloro-2-(trifluoromethyl)phenyl]-3-oxo-5,6,8,8a-tetrahydro-1H-imidazo[1,5-a]pyrazin-7-yl]-6-(2-ethoxypyridin-3-yl)pyridine-2-carbonyl]amino]ethyl]piperidine-1-carboxylate], for which the inhibition (as a rule, the relative decrease from the control value, in per cent) at 1 µM came out at 82%.

Take `CCOc1ncccc1-c1ccc(N2CCN3C(=O)N(c4ccc(Cl)cc4C(F)(F)F)C[C@@H]3C2)c(C(=O)NCCCn2cccn2)n1` [Example 22, 3-[(8aS)-2-[4-chloro-2-(trifluoromethyl)phenyl]-3-oxo-5,6,8,8a-tetrahydro-1H-imidazo[1,5-a]pyrazin-7-yl]-6-(2-ethoxypyridin-3-yl)-N-(3-pyrazol-1-ylpropyl)pyridine-2-carboxamide]: the inhibition at 1 µM stood at 100%.

Take `CCOc1ncccc1-c1ccc(N2CCN3C(=O)N(c4ccc(Cl)cc4C(F)(F)F)C[C@@H]3C2)c(C(=O)N[C@@H]2CCN(C)C2)n1` [Example 23, 3-[(8aS)-2-[4-chloro-2-(trifluoromethyl)phenyl]-3-oxo-5,6,8,8a-tetrahydro-1H-imidazo[1,5-a]pyrazin-7-yl]-6-(2-ethoxypyridin-3-yl)-N-[(3R)-1-methylpyrrolidin-3-yl]pyridine-2-carboxamide]: the inhibition at 1 µM was found to be 100%.

For `CCOc1ncccc1-c1ccc(N2C[C@H]3CN(c4ccc(Cl)cc4C(F)(F)F)C(=O)N3C[C@H]2CC)c(C(=O)NCCN(C)C)n1` [Example 26, 3-[(6R,8aS)-2-[4-chloro-2-(trifluoromethyl)phenyl]-6-ethyl-3-oxo-5,6,8,8a-tetrahydro-1H-imidazo[1,5-a]pyrazin-7-yl]-N-[2-(dimethylamino)ethyl]-6-(2-ethoxypyridin-3-yl)pyridine-2-carboxamide], the inhibition at 1 µM worked out at 100%.

Turning to `CCOc1ncccc1-c1ccc(N2C[C@H]3CN(c4ccc(Cl)cc4C(F)(F)F)C(=O)N3C[C@H]2CC)c(C(N)=O)n1` [Example 27, 3-[(6R,8aS)-2-[4-chloro-2-(trifluoromethyl)phenyl]-6-ethyl-3-oxo-5,6,8,8a-tetrahydro-1H-imidazo[1,5-a]pyrazin-7-yl]-6-(2-ethoxypyridin-3-yl)pyridine-2-carboxamide], the inhibition at 1 µM is 100%.

Regarding `CCOc1ncccc1-c1ccc(N2CCN3C(=O)N(c4ccc(Cl)cc4C(F)(F)F)C[C@@H]3C2)c(C(=O)NC2CCNC2)n1` (stereo partly drawn) [Example 28, 3-[(8aS)-2-[4-chloro-2-(trifluoromethyl)phenyl]-3-oxo-5,6,8,8a-tetrahydro-1H-imidazo[1,5-a]pyrazin-7-yl]-6-(2-ethoxypyridin-3-yl)-N-pyrrolidin-3-ylpyridine-2-carboxamide], the inhibition at 1 µM was found to be 100%.

As for `CCOc1ncccc1-c1ccc(N2C[C@H]3CN(c4ccc(Cl)cc4C(F)(F)F)C(=O)N3C[C@H]2CC)c(C(=O)NC2CNC(=O)C2)n1` (stereo partly drawn) [Example 29, 3-[(6R,8aS)-2-[4-chloro-2-(trifluoromethyl)phenyl]-6-ethyl-3-oxo-5,6,8,8a-tetrahydro-1H-imidazo[1,5-a]pyrazin-7-yl]-6-(2-ethoxypyridin-3-yl)-N-(5-oxopyrrolidin-3-yl)pyridine-2-carboxamide], the inhibition at 1 µM amounted to 100%.

For the molecule `CCOc1ncccc1-c1ccc(N2C[C@H]3CN(c4ccc(Cl)cc4C(F)(F)F)C(=O)N3C[C@H]2CC)c(C(=O)NCC2(O)CC2)n1` [Example 32, 3-[(6R,8aS)-2-[4-chloro-2-(trifluoromethyl)phenyl]-6-ethyl-3-oxo-5,6,8,8a-tetrahydro-1H-imidazo[1,5-a]pyrazin-7-yl]-6-(2-ethoxypyridin-3-yl)-N-[(1-hydroxycyclopropyl)methyl]pyridine-2-carboxamide], the inhibition at 1 µM came to 100%.

Consider `CCOc1ncccc1-c1ccc(N2C[C@H]3CN(c4ccc(Cl)cc4C(F)(F)F)C(=O)N3C[C@H]2CC)c(C(=O)NC[C@@H](C)O)n1` [Example 33, 3-[(6R,8aS)-2-[4-chloro-2-(trifluoromethyl)phenyl]-6-ethyl-3-oxo-5,6,8,8a-tetrahydro-1H-imidazo[1,5-a]pyrazin-7-yl]-6-(2-ethoxypyridin-3-yl)-N-[(2R)-2-hydroxypropyl]pyridine-2-carboxamide], for which the inhibition at 1 µM stood at 100%.

For the molecule `CCOc1ncccc1-c1ccc(N2C[C@H]3CN(c4ccc(Cl)cc4C(F)(F)F)C(=O)N3C[C@H]2CC)c(C(=O)NCC(C)(C)O)n1` [Example 35, 3-[(6R,8aS)-2-[4-chloro-2-(trifluoromethyl)phenyl]-6-ethyl-3-oxo-5,6,8,8a-tetrahydro-1H-imidazo[1,5-a]pyrazin-7-yl]-6-(2-ethoxypyridin-3-yl)-N-(2-hydroxy-2-methylpropyl)pyridine-2-carboxamide], the inhibition at 1 µM came to 100%.

Turning to `CCOc1ncccc1-c1ccc(N2C[C@H]3CN(c4ccc(Cl)cc4C(F)(F)F)C(=O)N3C[C@H]2CC)c(C(=O)NCCNC(C)=O)n1` [Example 36, N-(2-acetamidoethyl)-3-[(6R,8aS)-2-[4-chloro-2-(trifluoromethyl)phenyl]-6-ethyl-3-oxo-5,6,8,8a-tetrahydro-1H-imidazo[1,5-a]pyrazin-7-yl]-6-(2-ethoxypyridin-3-yl)pyridine-2-carboxamide], the inhibition at 1 µM was 100%.

As for `CCOc1ncccc1-c1ccc(N2C[C@H]3CN(c4ccc(Cl)cc4C(F)(F)F)C(=O)N3C[C@H]2CC)c(C(=O)O)n1` [Example 38a, 3-[(6R,8aS)-2-[4-chloro-2-(trifluoromethyl)phenyl]-6-ethyl-3-oxo-5,6,8,8a-tetrahydro-1H-imidazo[1,5-a]pyrazin-7-yl]-6-(2-ethoxy-3-pyridyl)pyridine-2-carboxylic acid], the inhibition at 1 µM is 91%.

Take `CCOc1ncccc1-c1ccc(N2C[C@H]3CN(c4ccc(Cl)cc4C(F)(F)F)C(=O)N3C[C@H]2CC)c(C(=O)N[C@@H]2CNC(=O)C2)n1` [Example 39, 3-[(6R,8aS)-2-[4-chloro-2-(trifluoromethyl)phenyl]-6-ethyl-3-oxo-5,6,8,8a-tetrahydro-1H-imidazo[1,5-a]pyrazin-7-yl]-6-(2-ethoxypyridin-3-yl)-N-[(3S)-5-oxopyrrolidin-3-yl]pyridine-2-carboxamide]: the inhibition at 1 µM worked out at 100%.

As for `CCOc1ncccc1-c1ccc(N2C[C@H]3CN(c4ccc(Cl)cc4C(F)(F)F)C(=O)N3C[C@H]2CC)c(C(=O)N[C@H](C)C(=O)NC)n1` [Example 40, 3-[(6R,8aS)-2-[4-chloro-2-(trifluoromethyl)phenyl]-6-ethyl-3-oxo-5,6,8,8a-tetrahydro-1H-imidazo[1,5-a]pyrazin-7-yl]-6-(2-ethoxypyridin-3-yl)-N-[(2R)-1-(methylamino)-1-oxopropan-2-yl]pyridine-2-carboxamide], the inhibition at 1 µM came out at 100%.

Take `CCOc1ncccc1-c1ccc(N2C[C@H]3CN(c4ccc(Cl)cc4C(F)(F)F)C(=O)N3C[C@H]2CC)c(C(=O)N[C@@H](C)C(=O)NC)n1` [Example 41, 3-[(6R,8aS)-2-[4-chloro-2-(trifluoromethyl)phenyl]-6-ethyl-3-oxo-5,6,8,8a-tetrahydro-1H-imidazo[1,5-a]pyrazin-7-yl]-6-(2-ethoxypyridin-3-yl)-N-[(2S)-1-(methylamino)-1-oxopropan-2-yl]pyridine-2-carboxamide]: the inhibition at 1 µM turned out to be 100%.

With `CCOc1ncccc1-c1ccc(N2C[C@H]3CN(c4ccc(Cl)cc4C(F)(F)F)C(=O)N3C[C@H]2CC)c(C(=O)NC2CC(=O)N(C)C2)n1` (stereo partly drawn) [Example 42, 3-[(6R,8aS)-2-[4-chloro-2-(trifluoromethyl)phenyl]-6-ethyl-3-oxo-5,6,8,8a-tetrahydro-1H-imidazo[1,5-a]pyrazin-7-yl]-6-(2-ethoxypyridin-3-yl)-N-(1-methyl-5-oxopyrrolidin-3-yl)pyridine-2-carboxamide], the inhibition at 1 µM was 100%.
